Relative viability data for six cell lines are collected here from the supplement of paper PMC10307832.

Assay in all cases: relative viability (nuclei count vs DMSO), 5 days (fraction); higher = more cells survive
Compound in the test “Bexarotene + Luminespib”: C=C(c1ccc(C(=O)O)cc1)c1cc2c(cc1C)C(C)(C)CCC2(C)C [Bexarotene] + CCNC(=O)c1noc(-c2cc(C(C)C)c(O)cc2O)c1-c1ccc(CN2CCOCC2)cc1 [Luminespib] (partner 0.01 µM)
The method, boiled down: (§1)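 Lung cancer cell lines, seeded in 1536-well plates, were treated the following day by pin tool with a single drug or with five library-drug doses (not always all listed) in √10 steps on top of a fixed anchor-drug dose. Cells were fixed and nuclei stained in one step after 5 days, and nuclei were counted. Relative viability is the nuclei count for treated wells divided by that for vehicle wells, reported as medians of duplicate plates.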

Compound in the test “Bexarotene + OSI-027”: C=C(c1ccc(C(=O)O)cc1)c1cc2c(cc1C)C(C)(C)CCC2(C)C [Bexarotene] + COc1cccc2cc(-c3nc([C@H]4CC[C@H](C(=O)O)CC4)n4ncnc(N)c34)[nH]c12 [OSI-027] (partner 0.5 µM)
An outline of the steps:
as §1

Compound in the test “Bexarotene + Lapatinib”: C=C(c1ccc(C(=O)O)cc1)c1cc2c(cc1C)C(C)(C)CCC2(C)C [Bexarotene] + CS(=O)(=O)CCNCc1ccc(-c2ccc3ncnc(Nc4ccc(OCc5cccc(F)c5)c(Cl)c4)c3c2)o1 [Lapatinib] (partner 2 µM)
An outline of the steps:
as §1

Compound in the test “Bexarotene + Linsitinib”: C=C(c1ccc(C(=O)O)cc1)c1cc2c(cc1C)C(C)(C)CCC2(C)C [Bexarotene] + C[C@]1(O)C[C@@H](c2nc(-c3ccc4ccc(-c5ccccc5)nc4c3)c3c(N)nccn32)C1 [Linsitinib] (partner 1 µM)
An outline of the steps:
as §1

Regarding HOP-62, the relative viability turned out to be 1.07 with Bexarotene + Luminespib (first compound 0.08 µM); 1.1 with Bexarotene + Luminespib (first compound 0.253 µM); 1.01 with Bexarotene + Luminespib (first compound 0.8 µM); 1.09 with Bexarotene + Luminespib (first compound 2.53 µM); 0.978 with Bexarotene + Luminespib (first compound 8 µM); 0.92 in the test with Bexarotene + OSI-027 (first compound 0.08 µM). For the same cell line, the relative viability with Bexarotene + OSI-027 (first compound 0.253 µM) was determined as 0.841; in the test with Bexarotene + OSI-027 (first compound 0.8 µM) it was 0.847; with Bexarotene + OSI-027 (first compound 2.53 µM), 0.803; with Bexarotene + OSI-027 (first compound 8 µM), 0.802; in the test with Bexarotene + Lapatinib (first compound 0.08 µM) it was 1.02; with Bexarotene + Lapatinib (first compound 0.253 µM) it was 1.09. For the same cell line, the relative viability in the test with Bexarotene + Lapatinib (first compound 0.8 µM) came to 0.943; with Bexarotene + Lapatinib (first compound 2.53 µM), 1.14; in the test with Bexarotene + Lapatinib (first compound 8 µM), 1.1; with Bexarotene + Linsitinib (first compound 0.08 µM), 1.01; with Bexarotene + Linsitinib (first compound 0.253 µM), 1.17; with Bexarotene + Linsitinib (first compound 0.8 µM), 1.15. For the same cell line, the results for the relative viability with Bexarotene + Linsitinib (first compound 2.53 µM) and with Bexarotene + Linsitinib (first compound 8 µM) were 1.02 and 0.909, respectively.

In the case of NCI-H358, the relative viability in the test with Bexarotene + Luminespib (first compound 0.08 µM) worked out at 0.136; with Bexarotene + Luminespib (first compound 0.253 µM) it was 0.306; in the test with Bexarotene + Luminespib (first compound 0.8 µM), 0.325; in the test with Bexarotene + Luminespib (first compound 2.53 µM), 0.244; with Bexarotene + Luminespib (first compound 8 µM), 0.121; in the test with Bexarotene + OSI-027 (first compound 0.08 µM) it was 0.764. The relative viability was determined as 0.774 in the test with Bexarotene + OSI-027 (first compound 0.253 µM); 0.685 with Bexarotene + OSI-027 (first compound 0.8 µM); 0.798 in the test with Bexarotene + OSI-027 (first compound 2.53 µM); 0.633 with Bexarotene + OSI-027 (first compound 8 µM); 0.461 in the test with Bexarotene + Lapatinib (first compound 0.08 µM); 0.464 with Bexarotene + Lapatinib (first compound 0.253 µM). The relative viability with Bexarotene + Lapatinib (first compound 0.8 µM) is 0.483; with Bexarotene + Lapatinib (first compound 2.53 µM), 0.574; in the test with Bexarotene + Lapatinib (first compound 8 µM), 0.535; with Bexarotene + Linsitinib (first compound 0.08 µM) it was 0.874; with Bexarotene + Linsitinib (first compound 0.253 µM) it was 0.699; with Bexarotene + Linsitinib (first compound 0.8 µM) it was 0.568. The relative viability with Bexarotene + Linsitinib (first compound 2.53 µM) is 0.778; in the test with Bexarotene + Linsitinib (first compound 8 µM) it was 0.643.

With SK-MES-1, the relative viability in the test with Bexarotene + Luminespib (first compound 0.08 µM) was determined as 0.923; with Bexarotene + Luminespib (first compound 0.253 µM), 0.989; with Bexarotene + Luminespib (first compound 0.8 µM) it was 0.803; in the test with Bexarotene + Luminespib (first compound 2.53 µM), 0.742; with Bexarotene + Luminespib (first compound 8 µM), 0.64; with Bexarotene + OSI-027 (first compound 0.08 µM), 0.638. For the same cell line, the relative viability was found to be 0.708 with Bexarotene + OSI-027 (first compound 0.253 µM); 0.563 with Bexarotene + OSI-027 (first compound 0.8 µM); 0.603 in the test with Bexarotene + OSI-027 (first compound 2.53 µM); 0.525 with Bexarotene + OSI-027 (first compound 8 µM); 0.512 in the test with Bexarotene + Lapatinib (first compound 0.08 µM); 0.45 with Bexarotene + Lapatinib (first compound 0.253 µM). The relative viability in the test with Bexarotene + Lapatinib (first compound 0.8 µM) worked out at 0.565; with Bexarotene + Lapatinib (first compound 2.53 µM) it was 0.558; with Bexarotene + Lapatinib (first compound 8 µM), 0.509; with Bexarotene + Linsitinib (first compound 0.08 µM), 1.15; in the test with Bexarotene + Linsitinib (first compound 0.253 µM), 1.18; in the test with Bexarotene + Linsitinib (first compound 0.8 µM), 0.983. Besides, the relative viability in the test with Bexarotene + Linsitinib (first compound 2.53 µM) turned out to be 1.05; with Bexarotene + Linsitinib (first compound 8 µM), 0.97.

Consider NCI-H1666, for which the relative viability with Bexarotene + Luminespib (first compound 0.08 µM) was found to be 0.922; with Bexarotene + Luminespib (first compound 0.253 µM) it was 0.978; with Bexarotene + Luminespib (first compound 0.8 µM), 0.916; with Bexarotene + Luminespib (first compound 2.53 µM) it was 0.907; in the test with Bexarotene + Luminespib (first compound 8 µM), 0.816; with Bexarotene + OSI-027 (first compound 0.08 µM), 0.774. Further, the relative viability with Bexarotene + OSI-027 (first compound 0.253 µM) came out at 0.759; with Bexarotene + OSI-027 (first compound 0.8 µM), 0.566; with Bexarotene + OSI-027 (first compound 2.53 µM), 0.747; with Bexarotene + OSI-027 (first compound 8 µM), 0.593; in the test with Bexarotene + Lapatinib (first compound 0.08 µM), 0.753; with Bexarotene + Lapatinib (first compound 0.253 µM), 0.588. Further, the relative viability with Bexarotene + Lapatinib (first compound 0.8 µM) was found to be 0.446; in the test with Bexarotene + Lapatinib (first compound 2.53 µM), 0.512; in the test with Bexarotene + Lapatinib (first compound 8 µM), 0.504; in the test with Bexarotene + Linsitinib (first compound 0.08 µM), 0.889; with Bexarotene + Linsitinib (first compound 0.253 µM), 0.783; with Bexarotene + Linsitinib (first compound 0.8 µM), 0.844. For the same cell line, the relative viability with Bexarotene + Linsitinib (first compound 2.53 µM) stood at 0.931; with Bexarotene + Linsitinib (first compound 8 µM) it was 0.661.

On to NCI-H1355, for which the relative viability was 0.831 in the test with Bexarotene + Luminespib (first compound 0.08 µM); 0.714 with Bexarotene + Luminespib (first compound 0.253 µM); 0.668 with Bexarotene + Luminespib (first compound 0.8 µM); 0.631 with Bexarotene + Luminespib (first compound 2.53 µM); 0.716 with Bexarotene + Luminespib (first compound 8 µM); 0.41 in the test with Bexarotene + OSI-027 (first compound 0.08 µM). The relative viability with Bexarotene + OSI-027 (first compound 0.253 µM) was found to be 0.426; in the test with Bexarotene + OSI-027 (first compound 0.8 µM), 0.37; with Bexarotene + OSI-027 (first compound 2.53 µM), 0.387; with Bexarotene + OSI-027 (first compound 8 µM), 0.462; with Bexarotene + Lapatinib (first compound 0.08 µM), 1.02; in the test with Bexarotene + Lapatinib (first compound 0.253 µM), 1.1. In addition, the relative viability with Bexarotene + Lapatinib (first compound 0.8 µM) was 0.898; with Bexarotene + Lapatinib (first compound 2.53 µM) it was 1.1; in the test with Bexarotene + Lapatinib (first compound 8 µM), 0.936; with Bexarotene + Linsitinib (first compound 0.08 µM), 1.02; with Bexarotene + Linsitinib (first compound 0.253 µM), 0.945; with Bexarotene + Linsitinib (first compound 0.8 µM), 0.801. In addition, the relative viability with Bexarotene + Linsitinib (first compound 2.53 µM) came out at 0.923; with Bexarotene + Linsitinib (first compound 8 µM), 0.764.

For HCC-827, the relative viability in the test with Bexarotene + Luminespib (first compound 0.08 µM) was found to be 0.525; with Bexarotene + Luminespib (first compound 0.253 µM), 0.78; with Bexarotene + Luminespib (first compound 0.8 µM), 0.655; in the test with Bexarotene + Luminespib (first compound 2.53 µM) it was 0.808; with Bexarotene + Luminespib (first compound 8 µM) it was 0.473; with Bexarotene + OSI-027 (first compound 0.08 µM), 0.843. Also, the relative viability with Bexarotene + OSI-027 (first compound 0.253 µM) worked out at 0.739; with Bexarotene + OSI-027 (first compound 0.8 µM), 0.715; with Bexarotene + OSI-027 (first compound 2.53 µM), 0.867; with Bexarotene + OSI-027 (first compound 8 µM), 0.74; with Bexarotene + Lapatinib (first compound 0.08 µM), 0.274; with Bexarotene + Lapatinib (first compound 0.253 µM), 0.159. For the same cell line, the relative viability in the test with Bexarotene + Lapatinib (first compound 0.8 µM) came out at 0.185; in the test with Bexarotene + Lapatinib (first compound 2.53 µM), 0.196; with Bexarotene + Lapatinib (first compound 8 µM) it was 0.196; with Bexarotene + Linsitinib (first compound 0.08 µM) it was 1.01; in the test with Bexarotene + Linsitinib (first compound 0.253 µM), 0.966; in the test with Bexarotene + Linsitinib (first compound 0.8 µM), 0.896. Further, the results for the relative viability with Bexarotene + Linsitinib (first compound 2.53 µM) and with Bexarotene + Linsitinib (first compound 8 µM) were 0.906 and 0.854, respectively.
